Reference: ChEMBL document CHEMBL3431459, “Roche carnitine palmitoyltransferase modulator screening data (supplementary data associated with the publication CHEMBL2216752)”
In brackets after ≈: the same amount, converted by molar mass.

What was measured:
[1] = molecular target: T1, Carnitine O-palmitoyltransferase 1, muscle isoform (Homo sapiens, UniProt Q92523); assay: SUPPLEMENTARY: Inhibition of Carnitine palmitoyltransferase 1, muscle isoform; parameters: species or system Muscle tissue
T1 sequence (Q92523 whole entry): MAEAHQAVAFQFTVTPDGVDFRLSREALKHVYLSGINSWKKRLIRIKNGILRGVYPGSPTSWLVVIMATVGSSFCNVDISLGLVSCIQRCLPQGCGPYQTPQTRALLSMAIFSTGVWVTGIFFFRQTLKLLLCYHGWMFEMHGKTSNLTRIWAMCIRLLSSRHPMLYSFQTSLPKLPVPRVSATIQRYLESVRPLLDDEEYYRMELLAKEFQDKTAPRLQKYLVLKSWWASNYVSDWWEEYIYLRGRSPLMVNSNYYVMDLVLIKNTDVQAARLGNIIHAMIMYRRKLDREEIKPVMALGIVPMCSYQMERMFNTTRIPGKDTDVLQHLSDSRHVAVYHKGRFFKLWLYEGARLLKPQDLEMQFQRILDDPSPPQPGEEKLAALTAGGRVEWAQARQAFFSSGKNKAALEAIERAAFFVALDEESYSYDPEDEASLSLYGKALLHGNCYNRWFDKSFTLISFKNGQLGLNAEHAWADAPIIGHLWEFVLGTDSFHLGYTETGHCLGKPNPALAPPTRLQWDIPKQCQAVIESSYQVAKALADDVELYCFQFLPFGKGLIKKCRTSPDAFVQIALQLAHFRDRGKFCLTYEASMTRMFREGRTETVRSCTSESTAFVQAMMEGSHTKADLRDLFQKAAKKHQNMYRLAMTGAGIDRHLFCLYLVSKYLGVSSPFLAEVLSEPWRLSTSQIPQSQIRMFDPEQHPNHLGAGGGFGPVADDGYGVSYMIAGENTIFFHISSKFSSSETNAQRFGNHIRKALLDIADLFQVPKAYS

[2] = molecular target: T2, Carnitine O-palmitoyltransferase 2, mitochondrial (Homo sapiens, UniProt P23786); assay: (§1) SUPPLEMENTARY: Inhibition of Carnitine palmitoyltransferase 2
T2 sequence (P23786 whole entry): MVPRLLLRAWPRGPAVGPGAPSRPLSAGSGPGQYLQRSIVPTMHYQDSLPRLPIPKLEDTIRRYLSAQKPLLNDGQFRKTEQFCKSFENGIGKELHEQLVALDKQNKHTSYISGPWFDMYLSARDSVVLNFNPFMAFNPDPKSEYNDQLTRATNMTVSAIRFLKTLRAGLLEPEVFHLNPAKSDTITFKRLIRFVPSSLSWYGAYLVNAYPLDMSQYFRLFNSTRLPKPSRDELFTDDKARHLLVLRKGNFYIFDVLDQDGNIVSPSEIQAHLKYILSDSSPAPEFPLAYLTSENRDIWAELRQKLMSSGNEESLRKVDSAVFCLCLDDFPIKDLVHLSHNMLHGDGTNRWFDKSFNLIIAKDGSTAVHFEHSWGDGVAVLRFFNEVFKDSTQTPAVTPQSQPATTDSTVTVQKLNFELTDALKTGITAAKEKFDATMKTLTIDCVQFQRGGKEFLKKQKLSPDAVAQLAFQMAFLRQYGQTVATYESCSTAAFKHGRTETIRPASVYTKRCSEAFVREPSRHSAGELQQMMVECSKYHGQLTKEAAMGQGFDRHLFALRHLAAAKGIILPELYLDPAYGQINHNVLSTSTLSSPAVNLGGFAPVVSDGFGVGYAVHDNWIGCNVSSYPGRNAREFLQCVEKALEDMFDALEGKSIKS

[3] = molecular target: T3, Carnitine O-palmitoyltransferase 2, mitochondrial (Rattus norvegicus, UniProt P18886); assay: as §1
T3 sequence (P18886 whole entry): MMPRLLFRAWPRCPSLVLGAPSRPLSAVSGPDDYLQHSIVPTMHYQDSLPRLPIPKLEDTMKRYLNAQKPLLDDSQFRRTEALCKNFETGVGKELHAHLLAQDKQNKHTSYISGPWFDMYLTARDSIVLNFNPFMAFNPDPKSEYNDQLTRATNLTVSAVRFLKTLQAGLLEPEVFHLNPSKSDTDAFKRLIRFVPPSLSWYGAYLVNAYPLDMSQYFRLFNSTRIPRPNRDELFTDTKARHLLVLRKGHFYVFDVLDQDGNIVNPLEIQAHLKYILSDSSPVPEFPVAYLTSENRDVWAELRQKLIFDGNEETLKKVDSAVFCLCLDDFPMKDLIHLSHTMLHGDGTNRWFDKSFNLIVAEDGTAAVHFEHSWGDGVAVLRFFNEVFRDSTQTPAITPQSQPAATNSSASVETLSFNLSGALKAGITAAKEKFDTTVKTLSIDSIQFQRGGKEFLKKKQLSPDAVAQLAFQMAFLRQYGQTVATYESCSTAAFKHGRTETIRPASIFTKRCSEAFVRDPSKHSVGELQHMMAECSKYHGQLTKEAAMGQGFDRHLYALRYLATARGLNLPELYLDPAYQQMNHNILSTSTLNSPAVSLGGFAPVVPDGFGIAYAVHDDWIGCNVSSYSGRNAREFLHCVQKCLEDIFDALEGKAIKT

[4] = molecular target: T4, Carnitine O-palmitoyltransferase 1, liver isoform (Homo sapiens, UniProt P50416); assay: (§2) SUPPLEMENTARY: Inhibition of Carnitine palmitoyltransferase 1, liver isoform
T4 sequence (P50416 whole entry): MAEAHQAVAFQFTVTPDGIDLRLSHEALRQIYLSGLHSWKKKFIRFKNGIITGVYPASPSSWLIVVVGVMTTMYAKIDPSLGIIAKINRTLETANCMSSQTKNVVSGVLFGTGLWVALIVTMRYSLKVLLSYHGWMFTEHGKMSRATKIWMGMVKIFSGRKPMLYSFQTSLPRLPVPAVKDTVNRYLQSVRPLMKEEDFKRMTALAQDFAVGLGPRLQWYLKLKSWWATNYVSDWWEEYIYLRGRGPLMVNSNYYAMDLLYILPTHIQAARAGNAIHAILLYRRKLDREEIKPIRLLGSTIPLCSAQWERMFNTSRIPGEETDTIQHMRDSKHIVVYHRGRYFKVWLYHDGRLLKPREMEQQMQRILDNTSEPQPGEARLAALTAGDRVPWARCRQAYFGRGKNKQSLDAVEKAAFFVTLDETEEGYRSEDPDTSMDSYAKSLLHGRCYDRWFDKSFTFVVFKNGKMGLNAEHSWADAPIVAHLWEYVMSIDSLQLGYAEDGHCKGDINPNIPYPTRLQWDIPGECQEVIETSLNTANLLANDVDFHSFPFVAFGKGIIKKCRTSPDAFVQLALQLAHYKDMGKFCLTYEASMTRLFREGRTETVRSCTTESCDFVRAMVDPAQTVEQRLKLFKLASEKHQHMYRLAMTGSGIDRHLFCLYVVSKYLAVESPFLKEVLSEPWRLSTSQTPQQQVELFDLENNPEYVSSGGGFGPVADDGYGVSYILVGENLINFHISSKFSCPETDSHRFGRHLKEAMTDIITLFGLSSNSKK

[5] = SUPPLEMENTARY: Lyophilisation Solubility Assay (LYSA); format: physicochemical; settings: read-out: Kinetic_solubility
[6] = SUPPLEMENTARY: Lipophilicity (log D) Determination by high-throughput shake-flask; format: physicochemical; settings: octanol/water
[7] = SUPPLEMENTARY: PAMPA permeability assay; format: physicochemical; settings: read-out: Permeability
[8] = molecular target: T5, Carnitine O-palmitoyltransferase 1, liver isoform (Rattus norvegicus, UniProt P32198); assay: as §2
T5 sequence (P32198 whole entry): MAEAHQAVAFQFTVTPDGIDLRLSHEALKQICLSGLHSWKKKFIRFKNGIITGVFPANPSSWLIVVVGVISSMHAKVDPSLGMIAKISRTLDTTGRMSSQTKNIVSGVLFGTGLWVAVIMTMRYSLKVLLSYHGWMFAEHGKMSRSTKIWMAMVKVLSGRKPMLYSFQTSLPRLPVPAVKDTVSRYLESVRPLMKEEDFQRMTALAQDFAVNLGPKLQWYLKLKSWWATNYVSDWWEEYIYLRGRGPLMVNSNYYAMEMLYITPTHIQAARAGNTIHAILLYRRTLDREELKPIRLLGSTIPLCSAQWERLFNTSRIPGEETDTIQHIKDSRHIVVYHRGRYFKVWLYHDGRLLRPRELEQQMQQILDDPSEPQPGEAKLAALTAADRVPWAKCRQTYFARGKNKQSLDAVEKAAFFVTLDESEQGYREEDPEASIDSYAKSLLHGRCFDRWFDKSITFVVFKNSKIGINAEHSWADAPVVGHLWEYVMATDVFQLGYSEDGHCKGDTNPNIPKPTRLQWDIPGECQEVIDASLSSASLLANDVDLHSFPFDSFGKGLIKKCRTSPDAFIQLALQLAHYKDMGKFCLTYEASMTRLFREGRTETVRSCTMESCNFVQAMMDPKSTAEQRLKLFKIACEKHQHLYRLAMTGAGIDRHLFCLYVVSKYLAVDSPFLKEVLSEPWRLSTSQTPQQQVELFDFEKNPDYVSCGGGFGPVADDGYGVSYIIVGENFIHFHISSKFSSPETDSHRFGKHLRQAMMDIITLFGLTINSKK

Structure (SMILES)	IC50 [1] [nM]	IC50 [2] [nM]	IC50 [3] [nM]	IC50 [4] [nM]	solubility kinetic [5] [µg/mL]	logD [6]	Papp [7] [×10⁻⁶ cm/s]	IC50 [8] [nM]
CCc1ccc(CCOc2ccc(CC3SC(=O)NC3=O)cc2)nc1 (configuration not stated) [PIOGLITAZONE]	> 100000	> 100000	> 100000	> 10000	< 1	4	7.49	
COc1ccc(Cl)cc1S(=O)(=O)N1CCCCc2ccc(C(=O)Nc3ccc(C(=O)O)cc3)cc21	14500	17600		289	211 (≈ 410 µM)	1.5	2.9	181
O=C(O)c1ccc(NC(=O)c2ccc3c(c2)N(S(=O)(=O)c2cccc(Cl)c2)CCO3)cc1	> 100000	94700		66.4	2 (≈ 4.23 µM)	2.92	3.01	89.8
O=C(COc1ccccc1)N1CCCC[C@@H]1c1nc(-c2cccc(O)c2)no1	> 100000	> 100000		36.4	7 (≈ 18.4 µM)	3.24	0.65	97.9
O=C(COc1ccccc1)N1CCCCC1c1cc(-c2ccccc2)n[nH]1 (configuration not stated)	> 100000	60600		159	7 (≈ 19.4 µM)	3.63	0.53	375
O=C(COc1ccccc1)N1CCCC[C@@H]1c1nc(-c2cccc(B(O)O)c2)no1	30600	15600		67.2	11 (≈ 27 µM)	2.16	4.15	205
O=C(COc1ccccc1)N1CCCC[C@@H]1c1nc(-c2cccc(-c3n[nH]c(=O)o3)c2)n[nH]1	> 100000	34000		115	24 (≈ 53.8 µM)	2.42	1.7	367
CNC(=O)c1cncc(-c2noc([C@H]3CCCCN3C(=O)COc3ccccc3)n2)c1	> 100000	88500		203	362 (≈ 859 µM)	2.09	3.8	422

Next, values leading:

IC50 [1] [nM]	IC50 [2] [nM]	IC50 [3] [nM]	IC50 [4] [nM]	solubility kinetic [5] [µg/mL]	logD [6]	Papp [7] [×10⁻⁶ cm/s]	IC50 [8] [nM]	Structure (SMILES)
> 100000	> 100000	> 100000	> 10000	92 (≈ 257 µM)	2.49	7.65		CN(CCOc1ccc(CC2SC(=O)NC2=O)cc1)c1ccccn1 (configuration not stated) [ROSIGLITAZONE]
45900	19800		196	> 547	-0.64	0.37	594	O=C(O)COc1cccc(-c2noc([C@H]3CCCCN3C(=O)COc3ccccc3)n2)c1
3010	12000		370	36 (≈ 65.5 µM)	0.66	2.54	188	COc1ccc(Cl)cc1S(=O)(=O)N1CCCCc2ccc(C(=O)Nc3ccc(C(=O)O)c(Cl)c3)cc21
> 100000	9180		217	431 (≈ 930 µM)	2.5	5.44	354	CCN(CC)C(=O)c1cncc(-c2noc([C@H]3CCCCN3C(=O)COc3ccccc3)n2)c1
> 100000	23500		264	87 (≈ 207 µM)	1.65	2.02	1630	NNC(=O)c1cccc(-c2n[nH]c([C@H]3CCCCN3C(=O)COc3ccccc3)n2)c1
> 100000	7350		165	> 559	1.83	4.13	469	COCCN(C)C(=O)c1cncc(-c2noc([C@H]3CCCCN3C(=O)COc3ccccc3)n2)c1
> 100000	> 100000		164	132 (≈ 309 µM)	2.19	3.4	244	COc1ccc(-c2noc(C3C[S+]([O-])CCN3C(=O)COc3ccccc3)n2)cc1 (configuration not stated)
748	86100		80	26 (≈ 60.4 µM)	2.66	3.05	388	O=C(COc1ccccc1)N1CCCC[C@@H]1c1nc(-c2cccc(-c3nnco3)c2)n[nH]1
